Test results published in ChEMBL document CHEMBL1201862, “PubChem BioAssay data set” (2004).
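Method: 48-hour compound exposure of cells in 96-well plates, five concentrations, linear interpolation of endpoints. GI50 is the concentration that inhibits growth by half.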 Calls of active or inactive are those of the source. Rule as the data show it: active = GI50 up to about 1.1 µM and inactive = higher.

Legend:
Test in all cases: inhibition of tumour cell growth, NCI panel, 48 h
[1] = system: M14
[2] = system: A549
[3] = system: T47D
[4] = system: SK-MEL-28
[5] = system: 786-0
[6] = system: HOP-62
[7] = system: Hs-578T
[8] = system: NCI-H522
[9] = system: EKVX
[10] = system: MDA-N
[11] = system: RXF 393
[12] = system: SK-OV-3
[13] = system: MCF7
[14] = system: MDA-MB-435
[15] = system: SNB-19
[16] = system: RPMI-8226
[17] = system: UO-31
[18] = system: OVCAR-3
[19] = system: NCI-H460
[20] = system: SNB-75

| SMILES | GI50 [1] | GI50 [2] | GI50 [3] | GI50 [4] | GI50 [5] | GI50 [6] | GI50 [7] | GI50 [8] | GI50 [9] | GI50 [10] | GI50 [11] | GI50 [12] | GI50 [13] | GI50 [14] | GI50 [15] | GI50 [16] | GI50 [17] | GI50 [18] | GI50 [19] | GI50 [20] |
| --- | --- | --- | --- | --- | --- | --- | --- | --- | --- | --- | --- | --- | --- | --- | --- | --- | --- | --- | --- | --- |
| CC(C)(C)OC(=O)CCC1NC(=O)[C@@H]2Cc3c([nH]c4ccccc34)C(C3CCCCC3)N2C1=O (some centres undefined) | 27.4 µM (inactive) | 26.4 µM (inactive) | 27.9 µM (inactive) | 68.9 µM (inactive) | 35.3 µM (inactive) | 35.6 µM (inactive) | 20.8 µM (inactive) | 30.3 µM (inactive) | 41.7 µM (inactive) | 24.5 µM (inactive) | 20 µM (inactive) | 44.6 µM (inactive) | 26.7 µM (inactive) | 30.8 µM (inactive) | 41.9 µM (inactive) | 16.4 µM (inactive) | 41.5 µM (inactive) | 26.2 µM (inactive) | – | – |
| CCCCCCCCCCCC(=O)OC[C@@H](C[As](=O)(O)O)OC(=O)CCCCCCCCCCC | 2.49 µM (inactive) | 14.2 µM (inactive) | 12.6 µM (inactive) | 4.54 µM (inactive) | 13.4 µM (inactive) | 9.95 µM (inactive) | 3.93 µM (inactive) | 2.47 µM (inactive) | 13.7 µM (inactive) | 4.29 µM (inactive) | 2.43 µM (inactive) | 12.4 µM (inactive) | 2.8 µM (inactive) | 3.85 µM (inactive) | 3.07 µM (inactive) | 6.87 µM (inactive) | 14.8 µM (inactive) | 4.19 µM (inactive) | 3.61 µM (inactive) | 3.82 µM (inactive) |
| COC(=O)C1CCOC(C)N1C(=O)OC(C)(C)C (centres undefined) | > 100 µM (inactive) | > 100 µM (inactive) | > 100 µM (inactive) | > 100 µM (inactive) | > 100 µM (inactive) | > 100 µM (inactive) | > 100 µM (inactive) | > 100 µM (inactive) | > 100 µM (inactive) | > 100 µM (inactive) | > 100 µM (inactive) | > 100 µM (inactive) | > 100 µM (inactive) | > 100 µM (inactive) | > 100 µM (inactive) | > 100 µM (inactive) | > 100 µM (inactive) | > 100 µM (inactive) | > 100 µM (inactive) | > 100 µM (inactive) |
| C=C1C(=O)OC2CC3(CO3)C3C(O)C(O)CC3(C)CC12 (centres undefined) | 16.4 µM (inactive) | 40.9 µM (inactive) | 30.9 µM (inactive) | 17.4 µM (inactive) | 76.9 µM (inactive) | 61.9 µM (inactive) | 81.3 µM (inactive) | 12.3 µM (inactive) | 18.3 µM (inactive) | 23.4 µM (inactive) | 16.7 µM (inactive) | > 100 µM (inactive) | 21 µM (inactive) | 25.4 µM (inactive) | > 100 µM (inactive) | 30.9 µM (inactive) | – | 21.9 µM (inactive) | 34.9 µM (inactive) | 49.8 µM (inactive) |
| COc1ccc2nc3cc([N+](=O)[O-])ccc3c(Nc3ccc(S(=O)(=O)NC(C)=O)cc3)c2c1 | > 100 µM (inactive) | > 100 µM (inactive) | > 100 µM (inactive) | > 100 µM (inactive) | 47 µM (inactive) | > 100 µM (inactive) | 85.9 µM (inactive) | 33.2 µM (inactive) | 85.3 µM (inactive) | > 100 µM (inactive) | > 100 µM (inactive) | > 100 µM (inactive) | 30.8 µM (inactive) | 76.4 µM (inactive) | > 100 µM (inactive) | 22.1 µM (inactive) | 73.6 µM (inactive) | 38.1 µM (inactive) | 40.6 µM (inactive) | – |
| Nc1ccc2nc3n(c(=O)c2c1)CCCCC3 | > 100 µM (inactive) | > 100 µM (inactive) | > 100 µM (inactive) | > 100 µM (inactive) | > 100 µM (inactive) | > 100 µM (inactive) | > 100 µM (inactive) | > 100 µM (inactive) | > 100 µM (inactive) | > 100 µM (inactive) | > 100 µM (inactive) | > 100 µM (inactive) | > 100 µM (inactive) | > 100 µM (inactive) | – | > 100 µM (inactive) | > 100 µM (inactive) | > 100 µM (inactive) | > 100 µM (inactive) | > 100 µM (inactive) |
| O=S(=O)(c1ccccc1)[C@@H]1[C@H]2C=C[C@](CS)(O2)[C@H]1S(=O)(=O)c1ccccc1 | > 100 µM (inactive) | > 100 µM (inactive) | 84.3 µM (inactive) | > 100 µM (inactive) | 30 µM (inactive) | > 100 µM (inactive) | > 100 µM (inactive) | 14.7 µM (inactive) | 78.9 µM (inactive) | 82.8 µM (inactive) | 43.6 µM (inactive) | > 100 µM (inactive) | 62.5 µM (inactive) | 46.2 µM (inactive) | > 100 µM (inactive) | – | > 100 µM (inactive) | 19.1 µM (inactive) | > 100 µM (inactive) | 67.5 µM (inactive) |
| COC(=O)C1CCCCCCCCCCC12SCCCS2 (centres undefined) | 15.5 µM (inactive) | 17.4 µM (inactive) | 35.7 µM (inactive) | 18.4 µM (inactive) | 14.6 µM (inactive) | 21.2 µM (inactive) | 30.4 µM (inactive) | 17.2 µM (inactive) | 19.4 µM (inactive) | 30.8 µM (inactive) | 19 µM (inactive) | 49.5 µM (inactive) | 43.9 µM (inactive) | 16.4 µM (inactive) | 18.2 µM (inactive) | – | 18.9 µM (inactive) | 18.4 µM (inactive) | 37.2 µM (inactive) | 19.1 µM (inactive) |
| N#CCCC(C=O)(CCC#N)CCC#N | > 100 µM (inactive) | > 100 µM (inactive) | > 100 µM (inactive) | > 100 µM (inactive) | > 100 µM (inactive) | – | > 100 µM (inactive) | > 100 µM (inactive) | > 100 µM (inactive) | > 100 µM (inactive) | > 100 µM (inactive) | > 100 µM (inactive) | > 100 µM (inactive) | > 100 µM (inactive) | > 100 µM (inactive) | – | > 100 µM (inactive) | > 100 µM (inactive) | > 100 µM (inactive) | > 100 µM (inactive) |
| Cc1nn(C(=O)c2ccc(Cl)cc2)c2c1C(c1ccccc1[N+](=O)[O-])SC(=N)N2 (centres undefined) | > 10 µM (inactive) | > 10 µM (inactive) | > 10 µM (inactive) | – | > 10 µM (inactive) | > 10 µM (inactive) | > 10 µM (inactive) | > 10 µM (inactive) | > 10 µM (inactive) | > 10 µM (inactive) | 0.569 µM (active) | > 10 µM (inactive) | > 10 µM (inactive) | > 10 µM (inactive) | > 10 µM (inactive) | > 10 µM (inactive) | – | > 10 µM (inactive) | > 10 µM (inactive) | > 10 µM (inactive) |
| CSc1ccc(/C=C2\N=C(c3ccccc3)N(c3nc4cc(C)c(C)cc4s3)C2=O)cc1 | 26.4 µM (inactive) | 30.1 µM (inactive) | 44.8 µM (inactive) | 49.7 µM (inactive) | 21.9 µM (inactive) | 23.6 µM (inactive) | 28.4 µM (inactive) | – | 24.9 µM (inactive) | 13.6 µM (inactive) | 25 µM (inactive) | 46.5 µM (inactive) | 15.3 µM (inactive) | 12.9 µM (inactive) | 30.2 µM (inactive) | 52.1 µM (inactive) | 28.9 µM (inactive) | 22.8 µM (inactive) | 36.3 µM (inactive) | 28.8 µM (inactive) |
| O=c1c2cc3c(cc2[nH]c2ncccc12)OCO3 | > 10 µM (inactive) | > 10 µM (inactive) | > 10 µM (inactive) | > 10 µM (inactive) | > 10 µM (inactive) | > 10 µM (inactive) | > 10 µM (inactive) | > 10 µM (inactive) | > 10 µM (inactive) | > 10 µM (inactive) | > 10 µM (inactive) | > 10 µM (inactive) | > 10 µM (inactive) | > 10 µM (inactive) | > 10 µM (inactive) | > 10 µM (inactive) | – | > 10 µM (inactive) | > 10 µM (inactive) | > 10 µM (inactive) |
| COC(=O)C(NC(=O)c1ccccc1)c1ccco1 (centres undefined) | > 100 µM (inactive) | > 100 µM (inactive) | > 100 µM (inactive) | > 100 µM (inactive) | > 100 µM (inactive) | > 100 µM (inactive) | > 100 µM (inactive) | – | > 100 µM (inactive) | > 100 µM (inactive) | > 100 µM (inactive) | > 100 µM (inactive) | > 100 µM (inactive) | > 100 µM (inactive) | > 100 µM (inactive) | > 100 µM (inactive) | > 100 µM (inactive) | > 100 µM (inactive) | > 100 µM (inactive) | > 100 µM (inactive) |
| CC(=O)OC12c3ccccc3-c3ccccc3C1C1C(=O)N(C)C(=O)C12Cl (centres undefined) | > 10 µM (inactive) | – | > 10 µM (inactive) | > 10 µM (inactive) | > 10 µM (inactive) | > 10 µM (inactive) | > 10 µM (inactive) | > 10 µM (inactive) | > 10 µM (inactive) | > 10 µM (inactive) | > 10 µM (inactive) | > 10 µM (inactive) | > 10 µM (inactive) | > 10 µM (inactive) | > 10 µM (inactive) | > 10 µM (inactive) | > 10 µM (inactive) | > 10 µM (inactive) | > 10 µM (inactive) | > 10 µM (inactive) |
| CCCCCCCCC/C=C1\CC(CO)(COC(=O)C2CCCCC2)OC1=O (centres undefined) | 18.6 µM (inactive) | 19.4 µM (inactive) | 20.9 µM (inactive) | 15.6 µM (inactive) | 14.9 µM (inactive) | 13.4 µM (inactive) | 16.4 µM (inactive) | 18.3 µM (inactive) | 17.9 µM (inactive) | 16.7 µM (inactive) | 20.2 µM (inactive) | 25.8 µM (inactive) | 23.2 µM (inactive) | 13.5 µM (inactive) | 21.8 µM (inactive) | – | 20.1 µM (inactive) | 18.6 µM (inactive) | 14.5 µM (inactive) | 15.8 µM (inactive) |
